Columns and labels:
[1] = target: MAP kinase-activated protein kinase 5 (Homo sapiens) (UniProt Q8IW41); settings: Compound concentration 1000.0 nM
[2] = test system: Epidermal growth factor receptor (Homo sapiens), P00533 [G719S]; settings: Compound concentration 1000.0 nM
[3] = target: Serine/threonine-protein kinase MRCK alpha (Homo sapiens) (UniProt Q5VT25); settings: Compound concentration 1000.0 nM
[4] = target: Protein kinase C eta type (Homo sapiens) (UniProt P24723); settings: Compound concentration 1000.0 nM
[5] = target: Serine/threonine-protein kinase pim-3 (Homo sapiens) (UniProt Q86V86); settings: Compound concentration 1000.0 nM
[6] = target: Vascular endothelial growth factor receptor 3 (Homo sapiens) (UniProt P35916); settings: Compound concentration 1000.0 nM
[7] = target: Serine/threonine-protein kinase PAK 1 (Homo sapiens) (UniProt Q13153); settings: Compound concentration 1000.0 nM
[8] = target: Mast/stem cell growth factor receptor Kit (Homo sapiens) (UniProt P10721); settings: Compound concentration 1000.0 nM
[9] = target: Serine/threonine-protein kinase WNK1 (Homo sapiens) (UniProt Q9H4A3); settings: Compound concentration 1000.0 nM
Serine/threonine-protein kinase WNK1 (Homo sapiens), sequence (Q9H4A3 whole entry, looked up): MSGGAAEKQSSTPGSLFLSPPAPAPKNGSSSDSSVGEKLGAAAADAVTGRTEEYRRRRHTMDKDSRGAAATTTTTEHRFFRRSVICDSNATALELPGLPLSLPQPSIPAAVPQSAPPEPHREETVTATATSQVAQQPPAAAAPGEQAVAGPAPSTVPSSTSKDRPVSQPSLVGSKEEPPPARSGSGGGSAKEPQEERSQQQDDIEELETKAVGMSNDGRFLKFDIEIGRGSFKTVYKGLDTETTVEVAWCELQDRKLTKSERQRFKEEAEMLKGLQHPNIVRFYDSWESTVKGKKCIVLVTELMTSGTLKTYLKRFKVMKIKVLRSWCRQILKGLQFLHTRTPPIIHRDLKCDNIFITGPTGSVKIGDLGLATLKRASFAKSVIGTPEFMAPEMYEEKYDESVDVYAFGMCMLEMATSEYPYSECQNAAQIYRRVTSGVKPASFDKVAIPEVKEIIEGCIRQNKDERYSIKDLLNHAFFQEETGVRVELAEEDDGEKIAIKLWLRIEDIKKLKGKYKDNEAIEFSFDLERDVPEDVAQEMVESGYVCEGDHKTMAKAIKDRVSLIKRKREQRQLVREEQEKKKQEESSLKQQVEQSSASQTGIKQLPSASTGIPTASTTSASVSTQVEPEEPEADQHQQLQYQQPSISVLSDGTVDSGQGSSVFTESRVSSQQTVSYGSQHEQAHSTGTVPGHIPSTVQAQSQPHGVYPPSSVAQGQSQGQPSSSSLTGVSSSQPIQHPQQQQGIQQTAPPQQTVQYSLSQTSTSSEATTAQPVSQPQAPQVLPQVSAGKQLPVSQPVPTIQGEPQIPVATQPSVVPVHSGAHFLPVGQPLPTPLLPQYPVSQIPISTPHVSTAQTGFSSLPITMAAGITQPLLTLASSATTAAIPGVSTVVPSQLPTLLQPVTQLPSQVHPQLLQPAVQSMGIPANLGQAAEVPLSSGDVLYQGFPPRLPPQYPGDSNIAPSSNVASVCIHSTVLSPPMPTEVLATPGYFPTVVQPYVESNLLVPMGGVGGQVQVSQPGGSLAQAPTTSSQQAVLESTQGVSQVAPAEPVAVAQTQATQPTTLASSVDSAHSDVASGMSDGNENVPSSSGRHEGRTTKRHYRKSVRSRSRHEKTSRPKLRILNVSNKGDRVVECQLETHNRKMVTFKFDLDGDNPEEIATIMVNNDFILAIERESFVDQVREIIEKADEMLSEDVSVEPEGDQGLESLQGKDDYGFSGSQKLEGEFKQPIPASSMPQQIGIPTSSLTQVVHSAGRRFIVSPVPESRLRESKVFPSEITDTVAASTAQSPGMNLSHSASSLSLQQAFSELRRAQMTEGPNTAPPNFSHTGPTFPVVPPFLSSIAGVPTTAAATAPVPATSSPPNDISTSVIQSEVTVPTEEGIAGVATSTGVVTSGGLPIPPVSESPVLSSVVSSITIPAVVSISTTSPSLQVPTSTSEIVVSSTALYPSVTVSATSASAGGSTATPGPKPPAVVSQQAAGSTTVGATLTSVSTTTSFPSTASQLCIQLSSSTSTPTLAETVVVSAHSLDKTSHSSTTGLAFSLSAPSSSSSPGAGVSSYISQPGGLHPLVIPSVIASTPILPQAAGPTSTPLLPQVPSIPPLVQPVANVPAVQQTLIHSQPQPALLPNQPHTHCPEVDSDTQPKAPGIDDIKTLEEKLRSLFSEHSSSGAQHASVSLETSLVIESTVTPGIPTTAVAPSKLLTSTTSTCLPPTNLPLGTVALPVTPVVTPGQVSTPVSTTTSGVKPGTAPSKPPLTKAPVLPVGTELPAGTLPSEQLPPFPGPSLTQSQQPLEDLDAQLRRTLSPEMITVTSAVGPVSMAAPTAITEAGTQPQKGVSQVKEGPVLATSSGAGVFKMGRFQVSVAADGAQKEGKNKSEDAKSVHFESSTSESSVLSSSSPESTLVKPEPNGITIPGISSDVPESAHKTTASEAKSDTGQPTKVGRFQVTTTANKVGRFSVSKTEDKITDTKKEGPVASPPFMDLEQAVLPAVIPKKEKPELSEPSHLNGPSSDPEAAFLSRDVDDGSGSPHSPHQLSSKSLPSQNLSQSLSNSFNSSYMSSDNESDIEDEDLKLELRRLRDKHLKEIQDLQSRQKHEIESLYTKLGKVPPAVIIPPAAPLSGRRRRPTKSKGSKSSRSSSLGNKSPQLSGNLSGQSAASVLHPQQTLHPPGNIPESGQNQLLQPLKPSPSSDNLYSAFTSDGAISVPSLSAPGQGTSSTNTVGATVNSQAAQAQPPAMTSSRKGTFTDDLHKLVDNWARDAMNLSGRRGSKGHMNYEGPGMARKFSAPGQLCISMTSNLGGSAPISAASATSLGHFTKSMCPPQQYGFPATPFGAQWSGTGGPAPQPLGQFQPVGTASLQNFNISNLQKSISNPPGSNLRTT

[10] = target: High affinity nerve growth factor receptor (Homo sapiens) (UniProt P04629); settings: Compound concentration 1000.0 nM
[11] = target: Dual specificity mitogen-activated protein kinase kinase 1 (Homo sapiens) (UniProt Q02750); settings: Compound concentration 1000.0 nM
[12] = target: Tyrosine-protein kinase BTK (Homo sapiens) (UniProt Q06187); settings: Compound concentration 1000.0 nM
[13] = target: Epidermal growth factor receptor (Homo sapiens) (UniProt P00533); settings: Compound concentration 1000.0 nM
[14] = target: Non-receptor tyrosine-protein kinase TYK2 (Homo sapiens) (UniProt P29597); settings: Compound concentration 1000.0 nM
[15] = target: 5-hydroxytryptamine receptor 1D (Homo sapiens) (UniProt P28221); settings: Compound concentration 10.0 uM
[16] = target: Ribosomal protein S6 kinase alpha-6 (Homo sapiens) (UniProt Q9UK32); settings: Compound concentration 1000.0 nM
[17] = target: Megakaryocyte-associated tyrosine-protein kinase (Homo sapiens) (UniProt P42679); settings: Compound concentration 1000.0 nM
[18] = target: Serine/threonine-protein kinase BRSK1 (Homo sapiens) (UniProt Q8TDC3); settings: Compound concentration 1000.0 nM
[19] = target: Mitogen-activated protein kinase 13 (Homo sapiens) (UniProt O15264); settings: Compound concentration 1000.0 nM
[20] = target: Mitogen-activated protein kinase 14 (Homo sapiens) (UniProt Q16539); settings: Compound concentration 1000.0 nM
Mitogen-activated protein kinase 14 (Homo sapiens), sequence (Q16539 whole entry): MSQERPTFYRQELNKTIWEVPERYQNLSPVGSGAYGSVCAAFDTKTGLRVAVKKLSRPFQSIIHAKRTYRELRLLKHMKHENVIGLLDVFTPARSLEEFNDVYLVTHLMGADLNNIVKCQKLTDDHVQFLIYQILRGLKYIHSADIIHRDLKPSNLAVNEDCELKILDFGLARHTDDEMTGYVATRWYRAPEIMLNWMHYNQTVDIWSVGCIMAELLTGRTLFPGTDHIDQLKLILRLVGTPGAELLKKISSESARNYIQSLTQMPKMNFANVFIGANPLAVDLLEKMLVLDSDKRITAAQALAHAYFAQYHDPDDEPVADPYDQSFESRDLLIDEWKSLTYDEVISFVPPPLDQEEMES

[21] = test system: Tyrosine-protein kinase ABL1 (Homo sapiens), P00519 [E255K]; settings: Compound concentration 1000.0 nM
Tyrosine-protein kinase ABL1 (Homo sapiens), P00519 [E255K], sequence (P00519 whole entry E255K): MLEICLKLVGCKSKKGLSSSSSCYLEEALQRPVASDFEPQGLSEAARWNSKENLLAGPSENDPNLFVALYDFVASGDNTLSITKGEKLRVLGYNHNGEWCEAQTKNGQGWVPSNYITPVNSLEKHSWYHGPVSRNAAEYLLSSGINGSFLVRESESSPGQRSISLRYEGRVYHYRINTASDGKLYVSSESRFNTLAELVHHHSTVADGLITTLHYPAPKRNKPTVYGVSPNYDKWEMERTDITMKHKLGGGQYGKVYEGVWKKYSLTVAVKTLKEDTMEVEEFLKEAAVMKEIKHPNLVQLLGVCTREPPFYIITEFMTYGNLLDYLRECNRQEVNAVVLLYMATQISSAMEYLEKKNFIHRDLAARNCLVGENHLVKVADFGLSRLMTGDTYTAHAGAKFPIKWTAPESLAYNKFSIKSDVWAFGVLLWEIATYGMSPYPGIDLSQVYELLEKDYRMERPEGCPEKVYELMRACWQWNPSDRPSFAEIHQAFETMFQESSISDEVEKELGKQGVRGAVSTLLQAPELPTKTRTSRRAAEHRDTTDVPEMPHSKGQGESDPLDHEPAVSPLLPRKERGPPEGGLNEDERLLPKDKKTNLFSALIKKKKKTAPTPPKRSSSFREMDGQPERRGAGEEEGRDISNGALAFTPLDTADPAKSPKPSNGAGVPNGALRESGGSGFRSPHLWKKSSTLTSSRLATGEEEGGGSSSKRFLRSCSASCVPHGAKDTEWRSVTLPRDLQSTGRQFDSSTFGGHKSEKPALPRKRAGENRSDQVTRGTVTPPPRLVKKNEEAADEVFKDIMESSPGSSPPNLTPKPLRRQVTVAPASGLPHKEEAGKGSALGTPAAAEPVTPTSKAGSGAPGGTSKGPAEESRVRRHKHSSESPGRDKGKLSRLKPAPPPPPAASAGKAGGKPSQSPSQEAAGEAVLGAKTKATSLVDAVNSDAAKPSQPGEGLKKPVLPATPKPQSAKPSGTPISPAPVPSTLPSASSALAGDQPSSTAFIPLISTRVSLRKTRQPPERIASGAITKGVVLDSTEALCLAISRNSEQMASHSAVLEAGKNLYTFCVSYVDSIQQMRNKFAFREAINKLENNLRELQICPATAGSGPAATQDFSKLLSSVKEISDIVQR

[22] = target: Fibroblast growth factor receptor 2 (Homo sapiens) (UniProt P21802); settings: Compound concentration 1000.0 nM
[23] = test system: Receptor-type tyrosine-protein kinase FLT3 (Homo sapiens), P36888 [UNDEFINED MUTATION]; settings: Compound concentration 1000.0 nM
[24] = target: Serine/threonine-protein kinase D1 (Homo sapiens) (UniProt Q15139); settings: Compound concentration 1000.0 nM
[25] = target: Non-receptor tyrosine-protein kinase TNK1 (Homo sapiens) (UniProt Q13470); settings: Compound concentration 1000.0 nM
Rattus norvegicus = species: Rattus norvegicus; settings: Compound concentration 10.0 uM
[26] = test system: Tyrosine-protein kinase ABL1 (Homo sapiens), P00519 [F317I]; settings: Compound concentration 1000.0 nM
Tyrosine-protein kinase ABL1 (Homo sapiens), P00519 [F317I], sequence (P00519 whole entry F317I): as the sequence (P00519 whole entry E255K) above, with K255E, F317I counted along it

[27] = target: Cyclin-G-associated kinase (Homo sapiens) (UniProt O14976); settings: Compound concentration 1000.0 nM
[28] = target: Dual specificity protein kinase TTK (Homo sapiens) (UniProt P33981); settings: Compound concentration 1000.0 nM
[29] = target: Calcium/calmodulin-dependent protein kinase type IV (Homo sapiens) (UniProt Q16566); settings: Compound concentration 1000.0 nM
[30] = target: NT-3 growth factor receptor (Homo sapiens) (UniProt Q16288); settings: Compound concentration 1000.0 nM
[31] = target: Mitogen-activated protein kinase kinase kinase 2 (Homo sapiens) (UniProt Q9Y2U5); settings: Compound concentration 1000.0 nM
Mitogen-activated protein kinase kinase kinase 2 (Homo sapiens), sequence (Q9Y2U5 whole entry): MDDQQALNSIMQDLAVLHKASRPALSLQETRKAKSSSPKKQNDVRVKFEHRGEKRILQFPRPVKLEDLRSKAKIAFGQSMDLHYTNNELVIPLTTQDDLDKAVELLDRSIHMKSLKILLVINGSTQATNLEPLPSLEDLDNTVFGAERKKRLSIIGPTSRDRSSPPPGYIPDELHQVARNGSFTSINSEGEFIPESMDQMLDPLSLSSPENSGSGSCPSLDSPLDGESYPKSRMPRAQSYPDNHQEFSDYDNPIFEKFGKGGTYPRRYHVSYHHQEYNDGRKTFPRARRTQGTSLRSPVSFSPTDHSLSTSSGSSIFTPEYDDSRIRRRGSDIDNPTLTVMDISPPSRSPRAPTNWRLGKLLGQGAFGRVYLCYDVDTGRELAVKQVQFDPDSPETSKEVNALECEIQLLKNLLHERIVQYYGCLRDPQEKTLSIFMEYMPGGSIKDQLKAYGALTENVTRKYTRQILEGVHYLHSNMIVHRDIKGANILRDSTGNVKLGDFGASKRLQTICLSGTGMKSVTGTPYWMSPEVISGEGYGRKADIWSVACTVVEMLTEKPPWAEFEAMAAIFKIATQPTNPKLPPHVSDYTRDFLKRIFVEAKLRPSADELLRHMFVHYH

[32] = target: Mitogen-activated protein kinase 11 (Homo sapiens) (UniProt Q15759); settings: Compound concentration 1000.0 nM
[33] = test system: Hepatocyte growth factor receptor (Homo sapiens), P08581 [M1250T]; settings: Compound concentration 1000.0 nM
[34] = target: Serine/threonine-protein kinase Nek1 (Homo sapiens) (UniProt Q96PY6); settings: Compound concentration 1000.0 nM
[35] = target: Mitotic checkpoint serine/threonine-protein kinase BUB1 (Homo sapiens) (UniProt O43683); settings: Compound concentration 1000.0 nM
[36] = target: MAP/microtubule affinity-regulating kinase 3 (Homo sapiens) (UniProt P27448); settings: Compound concentration 1000.0 nM
[37] = target: 5-hydroxytryptamine receptor 2B (Homo sapiens) (UniProt P41595); settings: Compound concentration 10.0 uM
[38] = target: Receptor tyrosine-protein kinase erbB-3 (Homo sapiens) (UniProt P21860); settings: Compound concentration 1000.0 nM
[39] = test system: Epidermal growth factor receptor (Homo sapiens), P00533 [UNDEFINED MUTATION]; settings: Compound concentration 1000.0 nM
[40] = target: Tyrosine-protein kinase Tec (Homo sapiens) (UniProt P42680); settings: Compound concentration 1000.0 nM
[41] = target: Serine/threonine-protein kinase RIO3 (Homo sapiens) (UniProt O14730); settings: Compound concentration 1000.0 nM
[42] = target: Dual specificity protein kinase CLK3 (Homo sapiens) (UniProt P49761); settings: Compound concentration 1000.0 nM
Dual specificity protein kinase CLK3 (Homo sapiens), sequence (P49761 whole entry, looked up): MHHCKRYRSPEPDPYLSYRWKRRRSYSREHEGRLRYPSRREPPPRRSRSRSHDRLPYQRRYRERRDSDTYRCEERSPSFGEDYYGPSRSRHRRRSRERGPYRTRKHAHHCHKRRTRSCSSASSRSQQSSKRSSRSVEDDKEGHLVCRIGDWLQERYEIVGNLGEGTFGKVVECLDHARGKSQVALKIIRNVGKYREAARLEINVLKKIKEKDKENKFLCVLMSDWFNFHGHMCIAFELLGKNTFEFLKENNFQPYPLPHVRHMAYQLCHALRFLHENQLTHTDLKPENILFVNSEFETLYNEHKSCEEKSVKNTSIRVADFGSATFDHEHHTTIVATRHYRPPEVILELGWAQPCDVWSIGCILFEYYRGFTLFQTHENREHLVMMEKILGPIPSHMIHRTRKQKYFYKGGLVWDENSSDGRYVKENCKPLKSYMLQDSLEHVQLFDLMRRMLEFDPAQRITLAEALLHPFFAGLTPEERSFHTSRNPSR

[43] = target: Serine/threonine-protein kinase Nek9 (Homo sapiens) (UniProt Q8TD19); settings: Compound concentration 1000.0 nM
[44] = target: Serine/threonine-protein kinase 33 (Homo sapiens) (UniProt Q9BYT3); settings: Compound concentration 1000.0 nM

## Cc1nc(Cc2cccc(C(F)(F)F)c2)sc1-c1ccc(C(N)=O)nc1 [TP-024n]
[1]
  residual activity: 100%
[2]
  residual activity: 67%
[3]
  residual activity: 81%
[4]
  residual activity: 83%
[5]
  residual activity: 100%
[6]
  residual activity: 100%
[7]
  residual activity: 84%
[8]
  residual activity: 95%
[9]
  residual activity: 100%
[10]
  residual activity: 64%
[11]
  residual activity: 100%
[12]
  residual activity: 100%
[13]
  residual activity: 100%
[14]
  residual activity: 100%
[15]
  inhibition: 8.49%
[16]
  residual activity: 91%
[17]
  residual activity: 100%
[18]
  residual activity: 100%
[19]
  residual activity: 99%
[20]
  residual activity: 100%
[21]
  residual activity: 85%
[22]
  residual activity: 100%
[23]
  residual activity: 100%
[24]
  residual activity: 93%
[25]
  residual activity: 85%
Rattus norvegicus
  inhibition: 4.9%
[26]
  residual activity: 83%
[27]
  residual activity: 91%
[28]
  residual activity: 82%
[29]
  residual activity: 100%
[30]
  residual activity: 69%
[31]
  residual activity: 100%
[32]
  residual activity: 95%
[33]
  residual activity: 92%
[34]
  residual activity: 41%
[35]
  residual activity: 100%
[36]
  residual activity: 86%
[37]
  inhibition: 33.7%
[38]
  residual activity: 100%
[39]
  residual activity: 100%
[40]
  residual activity: 100%
[41]
  residual activity: 100%
[42]
  residual activity: 85%
[43]
  residual activity: 100%
[44]
  residual activity: 91%

## Cc1cc(-n2nc(Cc3cc(F)cc(C(F)(F)F)c3)nc2C)ccc1C(N)=O [TP-024]
[1]
  residual activity: 100%
[2]
  residual activity: 100%
[3]
  residual activity: 100%
[4]
  residual activity: 97%
[5]
  residual activity: 100%
[6]
  residual activity: 97%
[7]
  residual activity: 95%
[8]
  residual activity: 95%
[9]
  residual activity: 100%
[10]
  residual activity: 97%
[11]
  residual activity: 100%
[12]
  residual activity: 100%
[13]
  residual activity: 100%
[14]
  residual activity: 100%
[15]
  inhibition: 12.5%
[16]
  residual activity: 89%
[17]
  residual activity: 100%
[18]
  residual activity: 100%
[19]
  residual activity: 100%
[20]
  residual activity: 95%
[21]
  residual activity: 93%
[22]
  residual activity: 100%
[23]
  residual activity: 100%
[24]
  residual activity: 92%
[25]
  residual activity: 69%
Rattus norvegicus
  inhibition: 7.23%
[26]
  residual activity: 85%
[27]
  residual activity: 100%
[28]
  residual activity: 90%
[29]
  residual activity: 100%
[30]
  residual activity: 94%
[31]
  residual activity: 100%
[32]
  residual activity: 90%
[33]
  residual activity: 80%
[34]
  residual activity: 54%
[35]
  residual activity: 100%
[36]
  residual activity: 100%
[37]
  inhibition: -2.51%
[38]
  residual activity: 100%
[39]
  residual activity: 100%
[40]
  residual activity: 100%
[41]
  residual activity: 100%
[42]
  residual activity: 94%
[43]
  residual activity: 100%
[44]
  residual activity: 100%
